Values quoted from earlier work as cited in patent publication US7662371B2, “Composition for lowering the concentration of intestinal pathogenic peptides” (Neurozym Biotech AS, priority 2001, dated 2010).

Settings: oral treatment, regressive-onset autism

## CN[C@H](CC(C)C)C(=O)N[C@H]1C(=O)N[C@@H](CC(N)=O)C(=O)N[C@H]2C(=O)N[C@H]3C(=O)N[C@H](C(=O)N[C@H](C(=O)O)c4cc(O)cc(O)c4-c4cc3ccc4O)[C@H](O)c3ccc(c(Cl)c3)Oc3cc2cc(c3O[C@@H]2O[C@H](CO)[C@@H](O)[C@H](O)[C@H]2O[C@H]2C[C@](C)(N)[C@H](O)[C@H](C)O2)Oc2ccc(cc2Cl)[C@H]1O [vancomycin]
  improvement, number of children: 8 of 10
